Structures can show the parent of a compound that is named as a salt.
| Compound | melting point |
| --- | --- |
| CN1Cc2cc(-c3ccc(-c4cccc(S(=O)(=O)Nc5ccccn5)c4)s3)ccc2C1=O (as salt: sodium) [Compound 14, sodium ((3-(5-(2-methyl-1-oxoisoindolin-5-yl)thiophen-2-yl)phenyl)sulfonyl)(pyridin-2-yl)amide] | 302 to 306 °C |
| COc1ccc(-c2ccc(-c3ccc4c(c3)CN(C)C4=O)s2)cc1S(=O)(=O)Nc1ccccn1 (as salt: sodium) [Compound 19, Sodium ((2-methoxy-5-(5-(2-methyl-1-oxoisoindolin-5-yl)thiophen-2-yl)phenyl)sulfonyl)(pyridin-2-yl)amide] | 322 to 325 °C |
| COc1ccc(S(=O)(=O)Nc2cncc(-c3ccc(-c4ccc5c(c4)CN(C)C5=O)s3)c2)cc1OC (as salt: sodium) [Compound 40, 3,4-Dimethoxy-N-(5-(5-(2-methyl-1-oxoisoindolin-5-yl)thiophen-2-yl)pyridin-3-yl)benzenesulfonamide, sodium salt] | 240 to 244 °C |
| CN1Cc2cc(-c3ccc(-c4cncc(NS(=O)(=O)c5ccc(S(C)(=O)=O)cc5)c4)s3)ccc2C1=O (as salt: sodium) [Compound 57, Sodium (5-(5-(2-methyl-1-oxoisoindolin-5-yl)thiophen-2-yl)pyridin-3-yl)((4-(methylsulfonyl)phenyl)sulfonyl)amide] | > 300 °C |
| CN1Cc2cc(-c3ccc(-c4ccnc(NS(=O)(=O)c5ccc(F)cc5F)c4)s3)ccc2C1=O [Compound 5, 2,4-Difluoro-N-(4-(5-(2-methyl-1-oxoisoindolin-5-yl)thiophen-2-yl)pyridin-2-yl)benzenesulfonamide] | 235 to 239 °C |
| CN1Cc2cc(-c3ccc(-c4cncc(N(C)S(=O)(=O)c5ccc(F)cc5F)c4)s3)ccc2C1=O [Compound 6, 2,4-Difluoro-N-methyl-N-(5-(5-(2-methyl-1-oxoisoindolin-5-yl)thiophen-2-yl)pyridin-3-yl)-benzenesulphonamide] | 200 to 202 °C |
| CN1Cc2cc(-c3ccc(-c4cncc(S(=O)(=O)Nc5ccc(F)cc5F)c4)s3)ccc2C1=O [Compound 7, N-(2,4-Difluorophenyl)-5-(5-(2-methyl-1-oxoisoindolin-5-yl)thiophen-2-yl)pyridine-3-sulphonamide] | 221 to 224 °C |
| CN1Cc2cc(-c3ccc(-c4cccc(NS(=O)(=O)c5ccc(F)cc5F)c4)s3)ccc2C1=O [Compound 9, 2,4-Difluoro-N-(3-(5-(2-methyl-1-oxoisoindolin-5-yl)thiophen-2-yl)phenyl)benzene sulphonamide] | 260 to 262 °C |
| COc1ncc(-c2ccc(-c3ccc4c(c3)CN(C)C4=O)s2)cc1NS(=O)(=O)c1ccc(F)cc1F [Compound 12, 2,4-Difluoro-N-(2-methoxy-5-(5-(2-methyl-1-oxoisoindolin-5-yl)-thiophen-2-yl)pyridin-3-yl)benzenesulphonamide] | 224 to 227 °C |
| Cc1ccc(NS(=O)(=O)c2ccccn2)cc1-c1ccc(-c2ccc3c(c2)CN(C)C3=O)s1 [Compound 15, N-(4-Methyl-3-(5-(2-methyl-1-oxoisoindolin-5-yl)thiophen-2-yl)phenyl)pyridine-2-sulfonamide] | 274 to 277 °C |
| CN1Cc2cc(-c3ccc(-c4ccc(OC(F)(F)F)c(NS(=O)(=O)c5ccccn5)c4)s3)ccc2C1=O [Compound 18, N-(5-(5-(2-Methyl-1-oxoisoindolin-5-yl)thiophen-2-yl)-2-(trifluoromethoxy)phenyl)pyridine-2-sulfonamide] | 200 to 201 °C |
| CN1Cc2cc(-c3ccc(-c4cncc(NS(=O)(=O)c5ccccc5)c4)s3)ccc2C1=O [Compound 21, N-(5-(5-(2-Methyl-1-oxoisoindolin-5-yl)thiophen-2-yl)pyridin-3-yl)benzenesulphonamide] | 300 to 303 °C |
| CN1Cc2cc(-c3ccc(-c4cncc(NS(=O)(=O)c5ccccc5F)c4)s3)ccc2C1=O [Compound 22, 2-Fluoro-N-(5-(5-(2-methyl-1-oxoisoindolin-5-yl)thiophen-2-yl)pyridin-3-yl)benzenesulfonamide] | 289 to 292 °C |
| CN1Cc2cc(-c3ccc(-c4cncc(NS(=O)(=O)c5cccc(F)c5)c4)s3)ccc2C1=O [Compound 23, 3-Fluoro-N-(5-(5-(2-methyl-1-oxoisoindolin-5-yl)thiophen-2-yl)pyridin-3-yl)benzenesulfonamide] | 292 to 294 °C |
| CN1Cc2cc(-c3ccc(-c4cncc(NS(=O)(=O)c5ccc(F)cc5)c4)s3)ccc2C1=O [Compound 24, 4-Fluoro-N-(5-(5-(2-methyl-1-oxoisoindolin-5-yl)thiophen-2-yl)pyridin-3-yl)benzenesulfonamide] | 272 to 274 °C |
| CN1Cc2cc(-c3ccc(-c4cncc(NS(=O)(=O)c5ccc(F)c(F)c5)c4)s3)ccc2C1=O [Compound 25, 3,4-Difluoro-N-(5-(5-(2-methyl-1-oxoisoindolin-5-yl)thiophen-2-yl)pyridin-3-yl)benzenesulfonamide] | 282 to 285 °C |
| CN1Cc2cc(-c3ccc(-c4cncc(NS(=O)(=O)c5ccccc5Cl)c4)s3)ccc2C1=O [Compound 27, 2-Chloro-N-(5-(5-(2-methyl-1-oxoisoindolin-5-yl)thiophen-2-yl)pyridin-3-yl)benzenesulfonamide] | 299 to 303 °C |

| Compound | melting point |
| --- | --- |
| CN1Cc2cc(-c3ccc(-c4cncc(NS(=O)(=O)c5cccc(Cl)c5)c4)s3)ccc2C1=O [Compound 28, 3-Chloro-N-(5-(5-(2-methyl-1-oxoisoindolin-5-yl)thiophen-2-yl)pyridin-3-yl)benzenesulfonamide] | 291 to 295 °C |
| CN1Cc2cc(-c3ccc(-c4cncc(NS(=O)(=O)c5ccc(Cl)cc5)c4)s3)ccc2C1=O [Compound 29, 4-Chloro-N-(5-(5-(2-methyl-1-oxoisoindolin-5-yl)thiophen-2-yl)pyridin-3-yl)benzenesulfonamide] | 281 to 284 °C |
| CN1Cc2cc(-c3ccc(-c4cncc(NS(=O)(=O)c5ccc(Cl)c(Cl)c5)c4)s3)ccc2C1=O [Compound 30, 3,4-Dichloro-N-(5-(5-(2-methyl-1-oxoisoindolin-5-yl)thiophen-2-yl)pyridin-3-yl)benzenesulfonamide] | 256 to 259 °C |
| CN1Cc2cc(-c3ccc(-c4cncc(NS(=O)(=O)c5ccc(Cl)cc5Cl)c4)s3)ccc2C1=O [Compound 31, 2,4-Dichloro-N-(5-(5-(2-methyl-1-oxoisoindolin-5-yl)thiophen-2-yl)pyridin-3-yl)benzenesulfonamide] | 282 to 285 °C |
| CN1Cc2cc(-c3ccc(-c4cncc(NS(=O)(=O)c5ccccc5Br)c4)s3)ccc2C1=O [Compound 32, 2-Bromo-N-(5-(5-(2-methyl-1-oxoisoindolin-5-yl)thiophen-2-yl)pyridin-3-yl)benzenesulfonamide] | 289 to 293 °C |
| CN1Cc2cc(-c3ccc(-c4cncc(NS(=O)(=O)c5cccc(Br)c5)c4)s3)ccc2C1=O [Compound 33, 3-Bromo-N-(5-(5-(2-methyl-1-oxoisoindolin-5-yl)thiophen-2-yl)pyridin-3-yl)benzenesulfonamide] | 303 to 307 °C |
| CN1Cc2cc(-c3ccc(-c4cncc(NS(=O)(=O)c5ccc(Br)cc5)c4)s3)ccc2C1=O [Compound 34, 4-Bromo-N-(5-(5-(2-methyl-1-oxoisoindolin-5-yl)thiophen-2-yl)pyridin-3-yl)benzenesulfonamide] | 276 to 279 °C |
| CN1Cc2cc(-c3ccc(-c4cncc(NS(=O)(=O)c5ccc(Br)cc5Br)c4)s3)ccc2C1=O [Compound 35, 2,4-Dibromo-N-(5-(5-(2-methyl-1-oxoisoindolin-5-yl)thiophen-2-yl)pyridin-3-yl)benzenesulfonamides] | 276 to 279 °C |
| CN1Cc2cc(-c3ccc(-c4cncc(NS(=O)(=O)c5ccc(I)cc5)c4)s3)ccc2C1=O [Compound 36, 4-Iodo-N-(5-(5-(2-methyl-1-oxoisoindolin-5-yl)thiophen-2-yl)pyridin-3-yl)benzenesulfonamides] | 295 to 298 °C |
| COc1ccccc1S(=O)(=O)Nc1cncc(-c2ccc(-c3ccc4c(c3)CN(C)C4=O)s2)c1 [Compound 37, 2-Methoxy-N-(5-(5-(2-methyl-1-oxoisoindolin-5-yl)thiophen-2-yl)pyridin-3-yl)benzenesulfonamide] | 273 to 276 °C |
| COc1cccc(S(=O)(=O)Nc2cncc(-c3ccc(-c4ccc5c(c4)CN(C)C5=O)s3)c2)c1 [Compound 38, 3-Methoxy-N-(5-(5-(2-methyl-1-oxoisoindolin-5-yl)thiophen-2-yl)pyridin-3-yl)benzenesulfonamide] | 278 to 280 °C |
| COc1ccc(S(=O)(=O)Nc2cncc(-c3ccc(-c4ccc5c(c4)CN(C)C5=O)s3)c2)cc1 [Compound 39, 4-Methoxy-N-(5-(5-(2-methyl-1-oxoisoindolin-5-yl)thiophen-2-yl)pyridin-3-yl)benzenesulfonamide] | 254 to 258 °C |
| CN1Cc2cc(-c3ccc(-c4cncc(NS(=O)(=O)c5ccccc5OC(F)(F)F)c4)s3)ccc2C1=O [Compound 41, N-(5-(5-(2-Methyl-1-oxoisoindolin-5-yl)thiophen-2-yl)pyridin-3-yl)-2-(trifluoromethoxy)benzenesulfonamide] | 251 to 254 °C |
| CN1Cc2cc(-c3ccc(-c4cncc(NS(=O)(=O)c5cccc(OC(F)(F)F)c5)c4)s3)ccc2C1=O [Compound 42, N-(5-(5-(2-Methyl-1-oxoisoindolin-5-yl)thiophen-2-yl)pyridin-3-yl)-3-(trifluoromethoxy)benzenesulfonamide] | 230 to 232 °C |
| CN1Cc2cc(-c3ccc(-c4cncc(NS(=O)(=O)c5ccc(OC(F)(F)F)cc5)c4)s3)ccc2C1=O [Compound 43, N-(5-(5-(2-Methyl-1-oxoisoindolin-5-yl)thiophen-2-yl)pyridin-3-yl)-4-(trifluoromethoxy)benzenesulfonamide] | 293 to 296 °C |
| CN1Cc2cc(-c3ccc(-c4cncc(NS(=O)(=O)c5ccc(C(F)(F)F)cc5)c4)s3)ccc2C1=O [Compound 46, N-(5-(5-(2-Methyl-1-oxoisoindolin-5-yl)thiophen-2-yl)pyridin-3-yl)-4-(trifluoromethyl)benzenesulfonamide] | 282 to 284 °C |
